# Non-standard residues stand in square brackets, D forms with d. Residues, ends and D or L forms follow the SMILES beside them. hArg = N=C(N)NCCCC[C@H](N)C(=O)O; Tle = CC(C)(C)[C@H](N)C(=O)O; Dab = NCC[C@H](N)C(=O)O; Aib = CC(C)(N)C(=O)O
# Experiments:
# human PSD95-PDZ2 [1] = target: T1, human PSD95-PDZ2 (Homo sapiens, UniProt P78352); assay: competitive ELISA, affinity for human PSD95-PDZ2; format: binding; conditions: for IC50: competitive ELISA against 0.3 µM Biotin-NA-1, error of this test within three times, read-out: IC50; for rIC50: ratio of the affinity of the polypeptide compound to the affinity of NA-1
# T1 construct: PDZ2 (155-249, the Flag-His-Avitag-TEVsite tag is italicized); made in house; host or cells: E. coli BL21-DE3 (PET vector)
# Description: The objective of this test example was to determine the affinities of polypeptide compounds for human PSD95-PDZ2 using competitive ELISAs.
# The amino acid sequence of PDZ2 protein was designed using human PSD95 (Uniprot Entry: P78352) as a template for PDZ: PDZ2 (155-249, the Flag-His-Avitag-TEVsite tag is italicized and was subsequently used for purification and biotinylation): […]
# […] (SEQ ID NO. 62). The PDZ2 gene was constructed onto a PET expression vector, and induced expression was performed using BL21-DE3 E. coli cells under conditions of 37 °C and 1 mM IPTG 4 h. Then centrifugation was performed at 10,000 g at 4 °C for 10 min, and the cell pellets were collected, resuspended in 1× PBS solution, and then lysed using a homogenizer. The lysate was centrifuged at high speed, and the supernatant was collected and filtered through a 0.45 µm membrane. A Ni-Sepharose affinity column was equilibrated with 5 column volumes of a 20 mM phosphate buffer (pH 8.0). The sample was centrifuged at high speed to remove impurities and loaded onto the column for binding. The column was rinsed with the 20 mM phosphate buffer until the A280 reading dropped to the baseline. Gradient elution was then performed with the 20 mM phosphate buffer and 0-500 mM imidazole. A protein was collected, and whether it was the target protein was determined. The purified sample described above was buffer-exchanged into 1× PBS solution, and the resulting solution was concentrated to a volume of 2 mL and further purified using a Superdex200 gel chromatography column (GE) equilibrated with 1× PBS. The target peak was collected and aliquoted for later use.
# PSD95-PDZ2 (the tag was removed by TEV enzyme) was diluted with 1× PBS buffer to 1 µg/mL, added to a 96-well microplate (Corning, 9018, 25/box 96-well clear flat bottom plate) at 100 µL/well, and left to stand overnight at 4 °C for 16-20 h. After the liquid was discarded, the plate was washed three times with PBST (pH 7.4, 0.05% Tween-20) buffer, and a 4% BSA blocking solution diluted with PBST buffer was then added (300 µL/well). The plate was blocked by incubation in an incubator at 37 °C for 1 h. After the blocking was complete, the blocking solution was discarded, and the plate was washed three times with PBST buffer. Biotin-NA-1, at a constant concentration of 0.3 µM, and the test compounds, having a starting concentration of 100 µM and serially diluted ten-fold with PBS buffer to seven concentrations (100, 10, 1, 0.1, 0.01, 0.001, 0.0001, and 0 µM), were then added, and the plate was incubated in an incubator at 37 °C for 1 h. After the incubation was complete, the reaction solutions in the microplate were discarded, and the plate was washed three times with PBST. 100 µL of HRP-SA secondary antibody (diluted at 1:2000) was added to each well, and the plate was incubated at 37 °C for 1 h. After the plate was washed three times with PBST, 100 µL of TMB chromogenic substrate was added. The plate was incubated at room temperature for 1-3 min, and 100 µL of 1 M sulfuric acid was added to stop the reaction.
# The absorbance at 450 nm was measured using a SpectraMax M5 microplate reader, and non-linear fitting was performed using GraphPad Prism 9 to calculate the binding IC50 values of the test compounds to PSD95-PDZ2 protein.
# human PSD95-PDZ2 [2] = target: T1, human PSD95-PDZ2; assay: binding ELISA with Biotin-PDZ2; conditions: for EC50: plate coated with 2 µM test compound, Biotin-PDZ2 titrated, read-out: EC50 (PDZ2); for Specificity for PDZ2 (PDZ3/PDZ2): ratio PDZ3/PDZ2
# Description: (§1) The three PDZ domains in the PSD95 protein are structurally similar. Binding to the PDZ1 and PDZ2 domains can effectively block PSD95-mediated neuroexcitotoxicity. However, the biological function of binding to the PDZ3 domain is unclear. Therefore, to avoid potential safety concerns, this test example assessed the selectivity of polypeptide compounds for the PDZ2 and PDZ3 domains, aiming to identify polypeptide compounds that specifically bind to the PDZ2 domain. Site-specifically biotinylated Biotin-PDZ2 and Biotin-PDZ3 proteins were used for binding ELISA assays. […] After the blocking was complete, the blocking solution was discarded, and the plate was washed three times with PBST buffer. […] After the incubation was complete, the reaction solutions in the microplate were discarded, and the plate was washed three times with PBST. 100 µL of HRP-SA secondary antibody (diluted at 1:2000) was added to each well, and the plate was incubated at 37 °C for 1 h. After the plate was washed three times with PBST, 100 µL of TMB chromogenic substrate was added. […] The absorbance at 450 nm was measured using a SpectraMax M5 microplate reader, and the binding EC50 values of the test compounds to Biotin-PDZ2 or Biotin-PDZ3 were calculated using GraphPad Prism 9. […] The abilities of polypeptide compounds to bind to human PSD95-PDZ2 and human PSD95-PDZ3
# Target sequence in this assay (P78352 155-249): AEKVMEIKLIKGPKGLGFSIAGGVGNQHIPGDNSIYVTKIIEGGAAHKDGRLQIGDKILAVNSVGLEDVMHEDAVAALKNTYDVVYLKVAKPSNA
# human PSD95-PDZ3 = target: T2, human PSD95-PDZ3 (Homo sapiens, UniProt P78352); assay: binding ELISA with Biotin-PDZ3; conditions: plate coated with 2 µM test compound, Biotin-PDZ3 titrated; read-out: EC50 (PDZ3)
# T2 construct: PDZ3 (309-401, Flag-His-Avitag-TEVsite tag); made in house
# T2 sequence (P78352 309-401): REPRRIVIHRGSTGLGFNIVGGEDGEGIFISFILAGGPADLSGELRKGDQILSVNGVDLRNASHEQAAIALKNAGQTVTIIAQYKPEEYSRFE
# Description: as §1, with “domain. The expression and purification of PSD95-PDZ3 protein were carried out with reference to the steps in 3.1.2. The amino acid sequence of PDZ3 protein: […]” for “domain.”, “μL” for “µL”
smiles,measurement,setting,value
"CC(C)[C@H](NC(=O)[C@H](CC(=O)O)NC(=O)[C@@H](NC(=O)[C@@H](NC(=O)[C@@H](NC(=O)COCCOCCNC(=O)[C@@H](CCCNC(=N)N)NC(=O)[C@@H](CCCNC(=N)N)NC(=O)[C@@H](CCCNC(=N)N)NC(=O)[C@@H](CCC(N)=O)NC(=O)[C@@H](CCCNC(=N)N)NC(=O)[C@@H](CCCNC(=N)N)NC(=O)[C@@H](CCCCN)NC(=O)[C@@H](CCCCN)NC(=O)[C@@H](CCCNC(=N)N)NC(=O)CNC(=O)[C@H](N)Cc1ccc(O)cc1)C(C)(C)C)C(C)(C)C)[C@@H](C)O)C(=O)O [Polypeptide compound 15, y-G-r-k-k-r-r-q-r-r-r-AEEA-Tle-Tle-T-D-V]",IC50,human PSD95-PDZ2 [1],2.62 µM
same,rIC50,human PSD95-PDZ2 [1],3.00
same,selectivity for the PSD95-PDZ2 domain,"human PSD95-PDZ2 [2]; PDZ2 versus PDZ3, conclusion in words",comparable to that of the positive drugs NA-1 and NoNO42
same,EC50,human PSD95-PDZ2 [2],0.088 µM
same,Specificity for PDZ2 (PDZ3/PDZ2),human PSD95-PDZ2 [2],>10000
same,EC50,human PSD95-PDZ3,> 1000 µM
"CCCC[C@H](NC(=O)[C@@H](CCCNC(=N)N)NC(=O)[C@@H](CCCNC(=N)N)NC(=O)[C@@H](CCCNC(=N)N)NC(=O)[C@@H](CCC(N)=O)NC(=O)[C@@H](CCCNC(=N)N)NC(=O)[C@@H](CCCNC(=N)N)NC(=O)[C@@H](CCCCN)NC(=O)[C@@H](CCCCN)NC(=O)[C@@H](CCCNC(=N)N)NC(=O)CNC(=O)[C@H](N)Cc1ccc(O)cc1)C(=O)N[C@H](C(=O)N[C@H](C(=O)N[C@H](C(=O)N[C@H](C(=O)N[C@H](C(=O)N[C@@H](CC(=O)O)C(=O)N[C@H](C(=O)O)C(C)C)[C@@H](C)O)C(C)(C)C)C(C)(C)C)[C@@H](C)O)[C@@H](C)O [Polypeptide compound 16, y-G-r-k-k-r-r-q-r-r-r-Nle-T-T-Tle-Tle-T-D-V]",IC50,human PSD95-PDZ2 [1],1.52 µM
same,EC50,human PSD95-PDZ2 [2],0.081 µM
same,EC50,human PSD95-PDZ3,> 1000 µM
"CC[C@H](C)[C@H](NC(=O)[C@H](CCCCNC(=N)N)NC(=O)[C@H](CCCCNC(=N)N)NC(=O)[C@@H](NC(=O)[C@@H](CCCNC(=N)N)NC(=O)[C@@H](CCCNC(=N)N)NC(=O)[C@@H](CCCNC(=N)N)NC(=O)[C@@H](CCC(N)=O)NC(=O)[C@@H](CCCNC(=N)N)NC(=O)[C@@H](CCCNC(=N)N)NC(=O)[C@@H](CCCCN)NC(=O)[C@@H](CCCCN)NC(=O)[C@@H](CCCNC(=N)N)NC(=O)CNC(=O)[C@H](N)Cc1ccc(O)cc1)[C@@H](C)O)C(=O)N[C@H](C(=O)N[C@@H](CC(=O)O)C(=O)N[C@H](C(=O)O)C(C)C)[C@@H](C)O [Polypeptide compound 17, y-G-r-k-k-r-r-q-r-r-r-T-homoArg-homoArg-I-T-D-V] (H-[dY]G[dR][dK][dK][dR][dR][dQ][dR][dR][dR]T[hArg][hArg]ITDV-OH)",IC50,human PSD95-PDZ2 [1],0.605 µM
same,EC50,human PSD95-PDZ2 [2],0.269 µM
same,EC50,human PSD95-PDZ3,38.3 µM
"CC(C)[C@H](NC(=O)[C@H](CC(=O)O)NC(=O)[C@@H](NC(=O)[C@@H](NC(=O)[C@@H](NC(=O)[C@H](CCCCNC(=N)N)NC(=O)[C@H](CCN)NC(=O)C(C)(C)NC(=O)CNC(=O)[C@@H](CCCNC(=N)N)NC(=O)[C@@H](CCCNC(=N)N)NC(=O)[C@@H](CCCNC(=N)N)NC(=O)[C@@H](CCC(N)=O)NC(=O)[C@@H](CCCNC(=N)N)NC(=O)[C@@H](CCCNC(=N)N)NC(=O)[C@@H](CCCCN)NC(=O)[C@@H](CCCCN)NC(=O)[C@@H](CCCNC(=N)N)NC(=O)CNC(=O)[C@H](N)Cc1ccc(O)cc1)C(C)(C)C)C(C)(C)C)[C@@H](C)O)C(=O)O [Polypeptide compound 18, y-G-r-k-k-r-r-q-r-r-r-G-Aib-Dab-homoArg-Tle-Tle-T-D-V] (H-[dY]G[dR][dK][dK][dR][dR][dQ][dR][dR][dR]G[Aib][Dab][hArg][Tle][Tle]TDV-OH)",IC50,human PSD95-PDZ2 [1],0.152 µM
same,rIC50,human PSD95-PDZ2 [1],0.17
same,EC50,human PSD95-PDZ2 [2],0.015 µM
same,Specificity for PDZ2 (PDZ3/PDZ2),human PSD95-PDZ2 [2],79
same,EC50,human PSD95-PDZ3,1.19 µM

# Reference: patent EP4650362A1, “NEUROPROTECTIVE PSD-95 POLYPEPTIDE INHIBITOR AND USE THEREOF” (Beijing Tuo Jie Biopharmaceutical Co. Ltd., priority 2023, dated 2024)
